According to PubChem BioAssay (NCI):
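1) Cells in 96-well plates. 2) Compound, 48 h, 5 concentrations. 3) Linear interpolation between surrounding doses. 4) Unreached endpoint = highest concentration. The concentration for full growth arrest is given as TGI.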

Columns and labels:
Test in all cases: NCI anticancer screen, dose series, 48 h
[1] = system: 786-0 renal
[2] = system: A498 renal
[3] = system: A549 NSCLC
[4] = system: ACHN renal
[5] = system: BT-549 breast
[6] = system: CAKI-1 renal
[7] = system: CCRF-CEM leukemia
[8] = system: COLO 205 colon
[9] = system: DU-145 prostate
[10] = system: EKVX NSCLC
[11] = system: HCT-116 colon
[12] = system: HCT-15 colon
[13] = system: HL-60(TB) leukemia
[14] = system: HOP-62 NSCLC
[15] = system: HOP-92 NSCLC
[16] = system: HS 578T breast
[17] = system: HT29 colon
[18] = system: IGROV1 ovarian
[19] = system: K-562 leukemia
[20] = system: KM12 colon
[21] = system: LOX IMVI melanoma
[22] = system: M14 melanoma
[23] = system: MALME-3M melanoma
[24] = system: MCF7 breast
[25] = system: MDA-MB-231 breast
[26] = system: MDA-MB-435
[27] = system: MDA-N
[28] = system: MOLT-4 leukemia
[29] = system: NCI-H226 lung
[30] = system: NCI-H460 lung
[31] = system: NCI-H522 lung
[32] = system: NCI/ADR-RES ovarian
[33] = system: OVCAR-3 ovarian
[34] = system: OVCAR-4 ovarian
[35] = system: OVCAR-5 ovarian
[36] = system: OVCAR-8 ovarian
[37] = system: PC-3 prostate
[38] = system: RPMI-8226 leukemia
[39] = system: SF-295 CNS
[40] = system: SF-539 CNS
[41] = system: SK-MEL-2 melanoma
[42] = system: SK-MEL-28 melanoma
[43] = system: SK-MEL-5 melanoma
[44] = system: SK-OV-3 ovarian
[45] = system: SN12C renal
[46] = system: SNB-19 CNS
[47] = system: SNB-75 CNS
[48] = system: SR leukemia
[49] = system: SW-620 colon
[50] = system: T-47D breast
[51] = system: TK-10 renal
[52] = system: U251 CNS
[53] = system: UACC-257 melanoma
[54] = system: UACC-62 melanoma
[55] = system: UO-31 renal
[56] = system: HCC-2998 colon
[57] = system: NCI-H23 lung
[58] = system: RXF 393 renal
[59] = system: SF-268 CNS

`O=C(OCc1ccccc1)N1CCNCCNCCN(C(=O)OCc2ccccc2)CCNCC1` showed a TGI [1] of 28.4 µM, a TGI [2] of 70.1 µM and a TGI [3] greater than 100 µM. The TGI [4] was greater than 100 µM, the TGI [5] was greater than 100 µM and the TGI [6] was 73.8 µM. It also gave a TGI [7] of 65.9 µM, a TGI [8] of 26.8 µM and a TGI [9] greater than 100 µM. For the same compound, the TGI [10] was 65.1 µM, the TGI [11] was 29.1 µM and the TGI [12] was 50.1 µM. For the same compound, the TGI [13] was 21.7 µM, the TGI [14] was greater than 100 µM and the TGI [15] was 46.7 µM. It also gave a TGI [16] of 44 µM, a TGI [17] of 32.9 µM and a TGI [18] of 91.3 µM. The TGI [19] was 29.8 µM, the TGI [20] was 70 µM and the TGI [21] was 30.8 µM. For the same compound, the TGI [22] was 30.4 µM, the TGI [23] was 36.5 µM and the TGI [24] was 32 µM. It also gave a TGI [25] of 65.1 µM, a TGI [26] of 29.6 µM and a TGI [27] of 31.3 µM. The TGI [28] was 38.9 µM, the TGI [29] was greater than 100 µM and the TGI [30] was 52.1 µM. For the same compound, the TGI [31] was 31.4 µM, the TGI [32] was greater than 100 µM and the TGI [33] was greater than 100 µM. For the same compound, the TGI [34] was greater than 100 µM, the TGI [35] was greater than 100 µM and the TGI [36] was 32.8 µM. It also gave a TGI [37] greater than 100 µM, a TGI [38] of 50.8 µM and a TGI [39] of 33.7 µM. For the same compound, the TGI [40] was 32.8 µM, the TGI [41] was 32.9 µM and the TGI [42] was 29.1 µM. It also gave a TGI [43] of 27.1 µM, a TGI [44] greater than 100 µM and a TGI [45] greater than 100 µM. It also gave a TGI [46] greater than 100 µM, a TGI [47] of 53 µM and a TGI [48] of 34.2 µM. It also gave a TGI [49] of 32.8 µM, a TGI [50] of 41 µM and a TGI [51] of 67.2 µM. The TGI [52] was 33.7 µM, the TGI [53] was 32 µM and the TGI [54] was 31.7 µM. The TGI [55] was 27.8 µM.

For `C#CCOC(=O)c1ccc(OC(C)=O)cc1`, the TGI [1] was greater than 100 µM, the TGI [2] was greater than 100 µM and the TGI [4] was greater than 100 µM. For the same compound, the TGI [5] was greater than 100 µM, the TGI [6] was greater than 100 µM and the TGI [7] was greater than 100 µM. For the same compound, the TGI [8] was greater than 100 µM, the TGI [9] was greater than 100 µM and the TGI [10] was greater than 100 µM. The TGI [56] was greater than 100 µM, the TGI [11] was greater than 100 µM and the TGI [12] was greater than 100 µM. The TGI [14] was greater than 100 µM, the TGI [15] was greater than 100 µM and the TGI [16] was greater than 100 µM. For the same compound, the TGI [18] was greater than 100 µM, the TGI [19] was greater than 100 µM and the TGI [20] was greater than 100 µM. It also gave a TGI [21] greater than 100 µM, a TGI [22] greater than 100 µM and a TGI [24] greater than 100 µM. The TGI [25] was greater than 100 µM, the TGI [26] was greater than 100 µM and the TGI [27] was greater than 100 µM. For the same compound, the TGI [28] was greater than 100 µM, the TGI [29] was greater than 100 µM and the TGI [57] was greater than 100 µM. It also gave a TGI [30] greater than 100 µM, a TGI [31] greater than 100 µM and a TGI [32] greater than 100 µM. For the same compound, the TGI [33] was greater than 100 µM, the TGI [34] was greater than 100 µM and the TGI [35] was greater than 100 µM. For the same compound, the TGI [36] was greater than 100 µM, the TGI [37] was greater than 100 µM and the TGI [38] was greater than 100 µM. The TGI [58] was greater than 100 µM, the TGI [59] was greater than 100 µM and the TGI [39] was greater than 100 µM. It also gave a TGI [40] greater than 100 µM, a TGI [41] greater than 100 µM and a TGI [43] greater than 100 µM. It also gave a TGI [44] greater than 100 µM, a TGI [45] greater than 100 µM and a TGI [46] greater than 100 µM. For the same compound, the TGI [47] was greater than 100 µM, the TGI [48] was greater than 100 µM and the TGI [49] was greater than 100 µM. It also gave a TGI [50] greater than 100 µM, a TGI [51] greater than 100 µM and a TGI [52] greater than 100 µM. It also gave a TGI [53] greater than 100 µM, a TGI [54] greater than 100 µM and a TGI [55] greater than 100 µM.
